A word on the MIC: it is the least concentration at which growth counts as inhibited. Read a low MIC as a more susceptible organism.

Like-named read-outs stand apart in the source and are kept apart here. Ends that are not written are not given here. Bounds are passed on as bounds.

The subject of data set [1] is E. faecium ATCC 19434. Format: cell-based, Enterococcus faecium. The settings on record: ATCC 19434, 18 h. From the text: (§1) The following microbial reference strains were utilized: Escherichia coli BW25113, E. coli ATCC 25922, E. coli ML35p, Enterococcus faecium ATCC 19434, Staphylococcus aureus ATCC 25923, Klebsiella pneumoniae ATCC 700603, Acinetobacter baumannii ATCC 19606, Pseudomonas aeruginosa ATCC 27853, Stenotrophomonas maltophilia ATCC 13637, Candida albicans ATCC 90029. The ΔsbmA strain of E. coli BW25113 belongs to the KEIO collection and the clinical isolate of Enterobacter agglomerans was kindly provided by Prof. C. Lagatolla from the Microbiology Laboratory of the University of Trieste. All the growth media were purchased from Difco (part of Thermo Fisher Scientific, MA, USA).
(§2) Bacteria were grown in Mueller-Hinton broth (MHB), except E. faecium, which was grown overnight in brain-heart infusion (BHI); E. coli BW25113 ΔsbmA was grown in the presence of 50 μg/mL kanamycin. C. albicans was grown in Sabouraud broth.
(§3) All the strains were grown overnight at 37 °C (except E. agglomerans, S. maltophilia and C. albicans, which were grown at 30 °C), with shaking at 140 rpm. The overnight bacterial cultures were then diluted approximately 1:40 in fresh growth medium and incubated at 37 °C or 30 °C with shaking (140 rpm) until an OD600 of between 0.3 and 0.5 was reached.
(§4) The minimum inhibitory concentration was determined by the broth microdilution method according to the NCCLS protocol. Briefly, an overnight bacterial or fungal culture was diluted in fresh MH or Sabouraud broth, respectively (300 µL O/N culture in 10 mL MHB/Sabouraud) and the culture was let grow at 37 °C or 30 °C to reach OD600 between 0.3 and 0.5. Serial two-fold dilutions of peptides were then performed in culture medium (Sabouraud, MHB or 20% MHB in PBS), to a final volume of 50 µL in the wells of a round bottom microtiter plate (Sarstedt, Milan, Italy), and then the bacterial suspension with a load of 5 × 10^5 CFU/mL was added to the plate, halving the final concentration of bacteria and peptides. The culture was grown at 37 °C or 30 °C and the MIC was determined after 18h by visual inspection as the first clear well. The assessment was performed taking into consideration at least three independent experiments performed in duplicate.

For data set [2], the system named is E. coli BW25113—Δ SbmA. The class given is cell-based, Escherichia coli. To be noted: E. coli BW25113 ΔSbmA, median of n ≥ 3.
Excerpt: as §1, §2, §3, §4

The test system of data set [3] is C. albicans ATCC 90029. Format: cell-based, Candida albicans. To be noted: ATCC 90029, 18 h.
Excerpt: as §1, §2, §3, §4

For data set [4], the system named is S. maltophilia ATCC 13637. Format: cell-based, Stenotrophomonas maltophilia. To be noted: ATCC 13637, 18 h.
Excerpt: as §1, §2, §3, §4

Data set [5] relates to human red blood cells (hRBCs). Format: cell-based. As for the experimental part: Figure 4 Evaluation of in vitro toxicity of CePrAMPs. (A) Hemolysis assay against human red blood cells (hRBCs), re-suspended in PBS at 4% (v/v) concentrations, measured as the absorbance of released hemoglobin (540 nm) after 1 h of exposure to the peptides. Results are reported as percentages with respect to hRBCs treated for 1 h with 1% Triton X-100 (considered as 100%), and are the average of three independent experiments (n = 3); (B,C) Evaluation via MTT assay of the viability of the indicated eukaryotic cell lines after exposure to the peptides. HaCat (B) or MEC-1 (C) cells were incubated with the different peptides at increasing concentrations for 21 h (B) or 20 h (C), before treating cells with MTT. Results are reported as the percentage of viable cells with respect to the untreated control, and are the average of three independent experiments (n = 3) (* = p < 0.05; ** = p < 0.01).
The lytic potential towards eukaryotic cell membranes was assessed by measuring the release of hemoglobin from human red blood cells (hRBCs) after exposure to the peptides. hRBCs were collected from single donor- human whole blood (Cambridge Bioscience, UK), being isolated by centrifugation, washed three times with PBS, and resuspended to either 8% or 0.8% (v/v) in PBS. […]

Data set [6] has as its system E. agglomerans—clinical isolate. Format: cell-based, Enterobacter agglomerans. To be noted: 18 h.
Excerpt: as §1, §2, §3, §4

Data set [7] has as its system E. coli BW25113. The class given is cell-based, Escherichia coli.
Excerpt: as §1, §2, §3, §4

For data set [8], the system named is P. aeruginosa ATCC 27853. The class given is cell-based, Pseudomonas aeruginosa. To be noted: 20% Mueller-Hinton broth in PBS, median of n ≥ 3.
Excerpt: as §1, §2, §3
(§5) The minimum inhibitory concentration was determined by the broth microdilution method according to the NCCLS protocol. […]

Data set [9] concerns bacterial protein synthesis (E. coli extracts). Put plainly: In vitro transcription/translation assay (firefly luciferase reporter). The class given is biochemical. The settings on record: E. coli lysate, 30 °C, 1 h, increasing peptide concentrations up to 25 µM, n ≥ 3. As for the experimental part: Several PrAMPs derived from artiodactyl or insect peptides act by interfering with bacterial protein synthesis. To evaluate if the cePrAMPs also targeted this process, in vitro transcription/translation assays were carried out in their presence, assessing the inhibition of the synthesis of a reporter luciferase (Figure 3). […].  Figure 3 Luciferase activity after in vitro transcription/translation reactions in presence of cePrAMPs. E. coli extracts were incubated with the firefly luciferase reporter DNA in the presence of increasing concentrations of cePrAMPs. Results are presented as the percentage with respect to control samples treated with only RNase-free water. Average and standard deviation of at least three independent experiments (n ≥ 3).
Reactions were set up using lysates of the RTS 100 E. coli HY kit from Biotechrabbit (Berlin, Germany) according to the user manual. Briefly, 1 μL of peptide solution was added to each reaction to reach the desired final concentration in a final volume of 6 μL. […] The presence of luciferase reporter protein was quantified by measuring its luminescence using a Infinite M200 plate reader (Tecan, Männedorf, Switzerland). The relative luminescence values for all the assays were calculated as a percentage of the positive control (reactions with nuclease-free water instead of the peptides) using three independent replicates. […]
For orientation: In a reporter assay the amount or activity of a reporter protein is the signal.

The subject of data set [10] is K. pneumoniae ATCC 700603. Format: cell-based, Klebsiella pneumoniae. The settings on record: 20% Mueller-Hinton broth in PBS, median of n ≥ 3.
Excerpt: as §1, §2, §3, §5

The nature of data set [11]: Resuspension of the peptides in Mueller-Hinton broth. Format: physicochemical. The settings on record: 100% Mueller-Hinton broth. From the text:
. To solve this issue and determine how it affected antimicrobial activity, bacterial susceptibility tests were repeated with most strains using 20% Mueller-Hinton broth. With some exceptions, these four peptides did indeed increase their activity in this medium, as did the others, in such a manner that the relative differences remained substantially unchanged (Table S1). Therefore, sequence-activity considerations remain valid.

Data set [12] concerns panel of reference pathogenic bacterial and fungal strains. The class given is cell-based.
Excerpt: as §1, §2, §3, §4

Data set [13] has as its system S. aureus ATCC 25923. The class given is cell-based, Staphylococcus aureus. To be noted: ATCC 25923, 18 h.
Excerpt: as §1, §2, §3, §5

Setting [14] is: 20% Mueller-Hinton broth in PBS.
Where [15] appears, read: broth microdilution (NCCLS), Mueller-Hinton broth, 37 °C, 18 h, visual.
The mark [16] stands for this setting: against P. aeruginosa and E. faecium.
Where [17] appears, read: against all the Gram-negative pathogen and C. albicans.

For RRIPFWPIPLRWQWPPPWFPPSFPIPRISRKR [Del1], the MIC in [1] is recorded as 4 µM; in [2] (setting [14]) it was 1 µM; in data set [2] (setting [15]) it was 8 µM; in data set [3], 8 µM; in [4] it was 4 µM; in data set [6], 8 µM. Besides, the hemolytic effect entry in data set [5] is reported as “relatively high hemolytic effect”.
As to RRIPFWPPNLPGPRRPPWFLPDFRIPRIPRKR [Orc1], the MIC is 16 µM in [1]; 2 µM in data set [2] (setting [15]); 4 µM in [3]; 2 µM in [4]; 8 µM in data set [6].
RRIRFPFPPFPWQWPPAGF [Neo1]: the MIC was greater than 64 µM in data set [1]; 24 µM in data set [7] (BW25113, 18 h); 16 µM in [7] (E. coli BW25113, 20% Mueller-Hinton broth in PBS, median of n ≥ 3); 64 µM in data set [8]; 32 µM in data set [3]; 24 µM in [4]. Further, the MIC in data set [10] was greater than 64 µM; in [6] it was 64 µM. The “inhibition of in vitro transcription/translation (luciferase activity)” value in data set [9] is “almost no inhibitory activity on protein synthesis”. In addition, the “resuspension in growth medium” value in [11] is given as “difficult to resuspend in 100% Mueller-Hinton broth”.
In the case of RRIRFRPPRLPRPRPRPWIPPRFPFPRIPGKR [Bal1], the MIC was 4 µM in data set [1]; 0.5 µM in [2] (setting [14]); 2 µM in data set [2] (setting [15]); 1.5 µM in data set [3]; 2 to 4 µM in data set [12] (setting [16]); no more than 4 µM in data set [12] (against P. aeruginosa and E. faecium, listed as Bal). The MIC was no more than 2 µM in data set [12] (setting [17]), 1 µM in data set [4] and 0.5 µM in [6].
On to RRIRIRPPRLPRPRPRPWFPPRFPIPRIPGKR [Lip1], for which the MIC in data set [1] was 4 µM; in [2] (setting [14]), 0.5 µM; in [2] (setting [15]), 1.5 µM; in data set [3], 2 µM; in data set [12] (setting [16]), 2 to 4 µM; in data set [12] (against P. aeruginosa and E. faecium, listed as Lip) it was no more than 4 µM. Further, the MIC is no more than 2 µM in data set [12] (setting [17]), 0.5 µM in data set [4] and 0.5 µM in data set [6].
Regarding “RRIRPRPPRLPRPRPRPLPFPRPGPRPIPRPLPFP [Bac7(1-35), reference compound]”, the MIC in [1] is recorded as 64 µM; in [2] (setting [14]) it was 2 µM; in [2] (setting [15]), 8 µM; in [3] it was 2 µM; in data set [4], 1 µM; in data set [13], greater than 64 µM. The sequence also returned an MIC in [6] of 0.5 µM.

The values above are taken from article PMC7582929, “Characterization of Cetacean Proline-Rich Antimicrobial Peptides Displaying Activity against ESKAPE Pathogens” (International Journal of Molecular Sciences, 2020).
